# According to patent US20180333418A1, “USE OF PAN FGFR INHIBITORS AND METHOD OF IDENTIFYING PATIENTS WITH CANCER ELIGIBLE FOR TREATMENT WITH A PAN FGFR INHIBITOR” (BAYER PHARMA AKTIENGESELLSCHAFT, priority 2014, published 2018):
# Columns and labels:
# [1] = system: SNU16 gastric tumor model; assay: SNU16 xenograft in vivo efficacy; design: species or system nu/nu mice; details: tumor weight reduction
# Procedure: (§1) For all other tumors as listed in table 2 & 3 the experiments were carried out in an analogous way as described above.
# [2] = system: KYSE-140 esophageal tumor model; assay: KYSE-140 xenograft in vivo efficacy; design: species or system nu/nu mice; details: KYSE-140 esophageal model; tumor weight reduction
# Procedure: as §1
# [3] = system: OMP2 myeloma tumor model; assay: OMP2 xenograft in vivo efficacy; design: species or system nu/nu mice; details: tumor weight reduction
# Procedure: as §1
# [4] = system: HN366 head&neck tumor model; assay: HN366 xenograft in vivo efficacy; design: species or system nu/nu mice; details: tumor weight reduction
# Procedure: as §1
# [5] = system: HN9897 Head & Neck squamous cell carcinoma; assay: HN9897 patient-derived xenograft study; assay type: in vivo, nu/nu mice
# [6] = system: LXFE211 lung tumor model; assay: LXFE211 xenograft in vivo efficacy; design: species or system nu/nu mice; details: tumor weight reduction
# Procedure: as §1
# [7] = system: DMS114 lung tumor model; assay: DMS114 xenograft in vivo efficacy; design: species or system nu/nu mice; details: tumor weight reduction
# Procedure: as §1
# [8] = system: ES204 esophagus squamous cell carcinoma; assay: ES204 patient-derived xenograft study; assay type: in vivo, nu/nu mice
# Procedure: Female, 6-8 weeks old immunocompromised nu/nu mice (18-24 g) from Vital River (China) were used for the patient-derived ES204 esophagus squamous cell carcinoma study.
# Experiment was initiated after a minimal acclimatization period of 6 days. Mice were kept in a 12 hours light/dark cycle, food and water was available ad libitum and housing temperature was 20-26° C. All the procedures related to animal handling, care, and the treatment in this study were performed according to the guidelines approved by the Institutional Animal Care and Use Committee (IACUC) of CrownBio following the guidance of the Association for Assessment and Accreditation of Laboratory Animal Care (AAALAC). […]
# Tumor fragments from stock mice inoculated with selected primary human esophagus cancer tissues (ES204) were harvested and used for inoculation onto female nu/nu nude mice. […] Tumors were sampled when mice in the control group reached sacrificing criteria, and final tumor weights were measured on day 23 post treatment start.
# Tumor size was measured twice weekly in two dimensions using a caliper, and the volume was expressed in mm^3 using the formula: V=0.5a×b^2 where a and b are the long and short diameters of the tumor, respectively. […]
# Descriptive statistics for all groups were performed on final tumor areas and tumor weights at day of the necropsy. Statistical analysis was assessed using the SigmaStat software. […]
smiles,measurement,setting,value
COCc1c(-c2cc3cc(C)cc(OC)c3s2)c2c(N)ncnn2c1CN1CCNC(=O)C1 [compound of formula (I)],in vivo efficacy,[1],yes (All models in which the tumor weight was reduced upon treatment with compounds of formula (I) by at least 50% were considered to be efficacious in vivo.)
same,in vivo efficacy,[2],no (All models in which the tumor weight was reduced upon treatment with compounds of formula (I) by at least 50% were considered to be efficacious in vivo.)
same,in vivo efficacy,[3],no (All models in which the tumor weight was reduced upon treatment with compounds of formula (I) by at least 50% were considered to be efficacious in vivo.)
same,in vivo efficacy,[4],yes (All models in which the tumor weight was reduced upon treatment with compounds of formula (I) by at least 50% were considered to be efficacious in vivo.)
same,T/C at day 44 post treatment start,"[5]; HN9897, 50 mg/kg 2QD po, treated mean/vehicle mean tumor volume",0.08
same,in vivo efficacy,"[5]; HN9897 head&neck model, tumor weight reduction",yes (All models in which the tumor weight was reduced upon treatment with compounds of formula (I) by at least 50% were considered to be efficacious in vivo.)
same,in vivo efficacy,[6],yes (All models in which the tumor weight was reduced upon treatment with compounds of formula (I) by at least 50% were considered to be efficacious in vivo.)
same,in vivo efficacy,[7],yes (All models in which the tumor weight was reduced upon treatment with compounds of formula (I) by at least 50% were considered to be efficacious in vivo.)
same,T/C at day 23 post treatment start,"[8]; ES204, 50 mg/kg 2QD po, treated mean/vehicle mean tumor volume",0.1
same,in vivo efficacy,"[8]; ES204 esophageal model, tumor weight reduction",yes (All models in which the tumor weight was reduced upon treatment with compounds of formula (I) by at least 50% were considered to be efficacious in vivo.)
